The structures appear in SMILES notation. Calls of active or inactive are those of the source.

Some targets named below: Cytochrome P450 2D6 (Homo sapiens, UniProt P10635); Cytochrome P450 2C9 (Homo sapiens, UniProt P11712); Cytochrome P450 3A4 (Homo sapiens, UniProt P08684).
Another assay concerns the target T1, Protein skinhead-1 (Caenorhabditis elegans, UniProt P34707).
T1 sequence (P34707 whole entry): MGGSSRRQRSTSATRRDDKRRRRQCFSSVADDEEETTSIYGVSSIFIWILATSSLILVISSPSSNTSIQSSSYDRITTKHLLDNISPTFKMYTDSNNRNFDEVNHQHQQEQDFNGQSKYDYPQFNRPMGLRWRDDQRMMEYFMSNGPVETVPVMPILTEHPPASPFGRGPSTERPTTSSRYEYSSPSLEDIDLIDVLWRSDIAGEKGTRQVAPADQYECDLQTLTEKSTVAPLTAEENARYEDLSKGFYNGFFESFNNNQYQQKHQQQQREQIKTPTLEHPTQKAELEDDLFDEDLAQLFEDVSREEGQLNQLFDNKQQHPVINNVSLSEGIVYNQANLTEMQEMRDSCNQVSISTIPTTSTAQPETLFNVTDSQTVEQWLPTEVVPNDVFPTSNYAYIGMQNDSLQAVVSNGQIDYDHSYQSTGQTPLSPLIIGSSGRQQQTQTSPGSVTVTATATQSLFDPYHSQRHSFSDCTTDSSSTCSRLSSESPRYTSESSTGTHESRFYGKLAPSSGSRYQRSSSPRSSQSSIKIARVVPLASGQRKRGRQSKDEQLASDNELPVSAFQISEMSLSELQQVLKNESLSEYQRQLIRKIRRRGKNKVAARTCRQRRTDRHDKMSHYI
The assay is classed as functional.

The target of assay [1] is DNA dC->dU-editing enzyme APOBEC-3G (Homo sapiens, UniProt Q9HC16). The assay is classed as functional.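 Note: Dose-response counterscreen measuring inhibition of APOBEC3G DNA deaminase activity, run while confirming APOBEC3A inhibitors.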
DNA dC->dU-editing enzyme APOBEC-3G, sequence (Q9HC16 whole entry): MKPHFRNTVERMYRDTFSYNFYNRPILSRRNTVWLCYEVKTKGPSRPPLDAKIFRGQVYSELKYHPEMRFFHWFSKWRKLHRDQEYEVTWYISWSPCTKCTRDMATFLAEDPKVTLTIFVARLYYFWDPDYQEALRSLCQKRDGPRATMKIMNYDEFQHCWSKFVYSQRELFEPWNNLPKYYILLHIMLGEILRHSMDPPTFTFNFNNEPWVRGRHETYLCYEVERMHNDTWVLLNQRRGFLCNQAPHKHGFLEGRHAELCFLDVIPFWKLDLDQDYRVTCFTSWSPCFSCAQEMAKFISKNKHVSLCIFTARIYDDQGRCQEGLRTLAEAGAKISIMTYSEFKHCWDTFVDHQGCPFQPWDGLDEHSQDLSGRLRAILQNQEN
Assay [2] addresses DNA dC->dU-editing enzyme APOBEC-3A (Homo sapiens, UniProt P31941). Nature of the assay: Dose Response confirmation of small molecule APOBEC3A DNA Deaminase Inhibitors via a fluorescence-based single-stranded DNA deaminase assay. [Related pubchem assays (depositor defined):AID493011, AID493024]. Type of assay: functional.
Assay [3] addresses T2, High affinity choline transporter 1 (Homo sapiens, UniProt Q9GZV3).
T2 sequence (Q9GZV3 whole entry): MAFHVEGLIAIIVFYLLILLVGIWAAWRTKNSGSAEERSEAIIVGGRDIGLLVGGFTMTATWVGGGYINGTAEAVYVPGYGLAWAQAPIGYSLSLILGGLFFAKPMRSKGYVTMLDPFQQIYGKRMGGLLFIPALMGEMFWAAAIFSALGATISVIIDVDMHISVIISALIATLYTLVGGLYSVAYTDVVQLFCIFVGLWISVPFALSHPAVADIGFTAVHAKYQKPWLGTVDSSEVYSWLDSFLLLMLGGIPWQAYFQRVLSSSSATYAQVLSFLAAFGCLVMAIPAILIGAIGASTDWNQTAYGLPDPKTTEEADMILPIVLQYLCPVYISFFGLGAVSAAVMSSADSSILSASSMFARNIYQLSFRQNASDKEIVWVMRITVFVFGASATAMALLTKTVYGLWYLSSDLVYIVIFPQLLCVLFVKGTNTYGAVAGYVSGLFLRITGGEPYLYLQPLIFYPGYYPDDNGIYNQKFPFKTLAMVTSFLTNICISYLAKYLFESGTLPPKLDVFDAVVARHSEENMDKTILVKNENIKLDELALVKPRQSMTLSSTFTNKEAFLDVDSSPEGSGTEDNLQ
Nature of the assay: human choline transporter blockers, potency – cell-based, 5-point CRC, membrane potential dye, dose response (AID 504840). Type of assay: functional.

The next assay has as its target Cytochrome P450 2C19 (Homo sapiens, UniProt P33261). Nature of the assay: Cytochrome panel assay with activity outcomes. Panel member name: p450-cyp2c19 Compounds with AC50 equal or less than 10 uM are considered active. Type of assay: functional. To be noted: read-out: AC50.
The target of a further assay is T3, Cytochrome P450 1A2 (Homo sapiens, UniProt P05177).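 Note: PubChem cytochrome P450 panel assay, CYP1A2 panel member.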
T3 sequence (P05177 whole entry): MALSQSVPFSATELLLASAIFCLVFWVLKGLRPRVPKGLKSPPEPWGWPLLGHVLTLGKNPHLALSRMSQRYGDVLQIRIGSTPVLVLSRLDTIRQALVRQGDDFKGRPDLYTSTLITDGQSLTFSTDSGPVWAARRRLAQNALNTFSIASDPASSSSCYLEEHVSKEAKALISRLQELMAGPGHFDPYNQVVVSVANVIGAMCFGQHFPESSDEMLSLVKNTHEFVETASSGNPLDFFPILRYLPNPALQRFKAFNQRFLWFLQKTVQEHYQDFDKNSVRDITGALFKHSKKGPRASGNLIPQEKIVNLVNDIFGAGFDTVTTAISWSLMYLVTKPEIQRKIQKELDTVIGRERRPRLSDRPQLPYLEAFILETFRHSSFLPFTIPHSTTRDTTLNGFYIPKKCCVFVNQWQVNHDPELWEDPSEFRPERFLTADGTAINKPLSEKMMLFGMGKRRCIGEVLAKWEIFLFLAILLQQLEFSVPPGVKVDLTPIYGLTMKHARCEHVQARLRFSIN

For assay [4], the target named is Peroxisome proliferator-activated receptor gamma/Nuclear receptor coactivator 3 (Homo sapiens, UniProt P37231). The experiment in a line: TR-FRET dose response biochemical High Throughput Screening assay for agonists of the steroid receptor coactivator 3 (SRC-3) recruitment by the peroxisome proliferator-activated receptor gamma (PPAR gamma): non-selective agonists. [Related pubchem assays: 1301 (Confirmation screen.), 1048 (Primary screen.)]. Type of assay: functional. Background: In TR-FRET formats the signal depends on donor and acceptor labels being close together.
Peroxisome proliferator-activated receptor gamma/Nuclear receptor coactivator 3, sequence (P37231 whole entry): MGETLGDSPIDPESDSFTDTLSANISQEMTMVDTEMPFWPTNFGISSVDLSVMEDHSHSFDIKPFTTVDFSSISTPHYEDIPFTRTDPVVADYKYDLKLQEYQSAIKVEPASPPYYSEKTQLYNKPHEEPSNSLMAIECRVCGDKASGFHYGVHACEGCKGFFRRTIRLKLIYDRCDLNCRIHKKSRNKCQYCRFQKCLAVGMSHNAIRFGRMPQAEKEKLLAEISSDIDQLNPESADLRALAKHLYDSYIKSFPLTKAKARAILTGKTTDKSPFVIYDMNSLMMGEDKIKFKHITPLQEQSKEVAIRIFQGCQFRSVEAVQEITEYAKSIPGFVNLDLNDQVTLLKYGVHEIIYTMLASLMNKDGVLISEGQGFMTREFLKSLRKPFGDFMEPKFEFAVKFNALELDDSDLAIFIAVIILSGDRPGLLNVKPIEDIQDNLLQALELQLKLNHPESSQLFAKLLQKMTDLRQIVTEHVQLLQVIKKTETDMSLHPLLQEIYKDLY
Peroxisome proliferator-activated receptor gamma/Nuclear receptor coactivator 3, sequence (Q9Y6Q9 whole entry, further chain): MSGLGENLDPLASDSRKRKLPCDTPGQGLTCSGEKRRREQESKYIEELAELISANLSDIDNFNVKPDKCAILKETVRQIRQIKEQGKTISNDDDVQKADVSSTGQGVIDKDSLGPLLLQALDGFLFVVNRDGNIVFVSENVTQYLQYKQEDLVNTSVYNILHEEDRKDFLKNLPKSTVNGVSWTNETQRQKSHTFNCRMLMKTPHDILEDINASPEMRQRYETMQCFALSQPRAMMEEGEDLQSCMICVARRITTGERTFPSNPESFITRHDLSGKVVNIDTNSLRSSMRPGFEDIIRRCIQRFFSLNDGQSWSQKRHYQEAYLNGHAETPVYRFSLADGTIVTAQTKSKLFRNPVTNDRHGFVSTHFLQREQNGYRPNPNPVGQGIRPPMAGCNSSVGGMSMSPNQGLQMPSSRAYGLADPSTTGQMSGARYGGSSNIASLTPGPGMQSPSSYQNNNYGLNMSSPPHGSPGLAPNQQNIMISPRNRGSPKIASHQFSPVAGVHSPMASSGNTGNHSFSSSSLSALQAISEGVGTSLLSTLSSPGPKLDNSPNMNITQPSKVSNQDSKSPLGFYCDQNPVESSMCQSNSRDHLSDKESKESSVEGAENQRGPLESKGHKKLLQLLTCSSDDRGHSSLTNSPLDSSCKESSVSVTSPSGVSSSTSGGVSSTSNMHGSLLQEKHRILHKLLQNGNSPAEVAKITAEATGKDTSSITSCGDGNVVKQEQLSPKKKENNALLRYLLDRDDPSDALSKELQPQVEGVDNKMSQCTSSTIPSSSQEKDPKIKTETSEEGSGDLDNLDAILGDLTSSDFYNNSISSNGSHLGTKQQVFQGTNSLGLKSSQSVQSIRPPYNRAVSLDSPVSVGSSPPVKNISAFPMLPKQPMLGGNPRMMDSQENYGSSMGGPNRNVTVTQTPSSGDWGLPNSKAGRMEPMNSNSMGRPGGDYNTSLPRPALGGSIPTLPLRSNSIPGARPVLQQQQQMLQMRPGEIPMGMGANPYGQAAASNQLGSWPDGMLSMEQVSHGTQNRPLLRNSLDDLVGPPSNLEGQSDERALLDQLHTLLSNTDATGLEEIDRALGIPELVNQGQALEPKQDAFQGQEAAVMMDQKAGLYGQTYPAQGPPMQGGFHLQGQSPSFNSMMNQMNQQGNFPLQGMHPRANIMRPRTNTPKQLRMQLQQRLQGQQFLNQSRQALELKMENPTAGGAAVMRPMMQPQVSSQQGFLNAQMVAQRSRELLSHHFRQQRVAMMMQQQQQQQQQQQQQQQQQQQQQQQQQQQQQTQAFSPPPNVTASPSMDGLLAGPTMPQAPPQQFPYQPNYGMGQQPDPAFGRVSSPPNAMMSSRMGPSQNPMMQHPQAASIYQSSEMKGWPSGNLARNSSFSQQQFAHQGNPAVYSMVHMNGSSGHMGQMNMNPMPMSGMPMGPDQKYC

Assay [5] deals with Peroxisome proliferator-activated receptor gamma/Nuclear receptor coactivator 1 (Homo sapiens, UniProt P37231). The experiment in a line: TR-FRET dose response biochemical High Throughput Screening assay for agonists of the steroid receptor coactivator 1 (SRC-1) recruitment by the peroxisome proliferator-activated receptor gamma (PPAR gamma): non-selective agonists. [Related pubchem assays (depositor defined):AID1300, AID1808, AID504735, AID631]. Type of assay: protein assay.

Another assay can be described thus: cells. Type of assay: functional.
Assay [6] has as its target Peroxisome proliferator-activated receptor gamma/Nuclear receptor coactivator 2 (Homo sapiens, UniProt P37231). The experiment in a line: TR-FRET dose response biochemical High Throughput Screening assay for agonists of the steroid receptor coactivator 2 (SRC-2) recruitment by the peroxisome proliferator-activated receptor gamma (PPAR gamma): non-selective agonists. [Related pubchem assays: 1297, 1032 ]. Type of assay: functional.

Assay [7] has as its target T4, Short transient receptor potential channel 4 (Mus musculus, UniProt Q9QUQ5).
T4 sequence (Q9QUQ5 whole entry): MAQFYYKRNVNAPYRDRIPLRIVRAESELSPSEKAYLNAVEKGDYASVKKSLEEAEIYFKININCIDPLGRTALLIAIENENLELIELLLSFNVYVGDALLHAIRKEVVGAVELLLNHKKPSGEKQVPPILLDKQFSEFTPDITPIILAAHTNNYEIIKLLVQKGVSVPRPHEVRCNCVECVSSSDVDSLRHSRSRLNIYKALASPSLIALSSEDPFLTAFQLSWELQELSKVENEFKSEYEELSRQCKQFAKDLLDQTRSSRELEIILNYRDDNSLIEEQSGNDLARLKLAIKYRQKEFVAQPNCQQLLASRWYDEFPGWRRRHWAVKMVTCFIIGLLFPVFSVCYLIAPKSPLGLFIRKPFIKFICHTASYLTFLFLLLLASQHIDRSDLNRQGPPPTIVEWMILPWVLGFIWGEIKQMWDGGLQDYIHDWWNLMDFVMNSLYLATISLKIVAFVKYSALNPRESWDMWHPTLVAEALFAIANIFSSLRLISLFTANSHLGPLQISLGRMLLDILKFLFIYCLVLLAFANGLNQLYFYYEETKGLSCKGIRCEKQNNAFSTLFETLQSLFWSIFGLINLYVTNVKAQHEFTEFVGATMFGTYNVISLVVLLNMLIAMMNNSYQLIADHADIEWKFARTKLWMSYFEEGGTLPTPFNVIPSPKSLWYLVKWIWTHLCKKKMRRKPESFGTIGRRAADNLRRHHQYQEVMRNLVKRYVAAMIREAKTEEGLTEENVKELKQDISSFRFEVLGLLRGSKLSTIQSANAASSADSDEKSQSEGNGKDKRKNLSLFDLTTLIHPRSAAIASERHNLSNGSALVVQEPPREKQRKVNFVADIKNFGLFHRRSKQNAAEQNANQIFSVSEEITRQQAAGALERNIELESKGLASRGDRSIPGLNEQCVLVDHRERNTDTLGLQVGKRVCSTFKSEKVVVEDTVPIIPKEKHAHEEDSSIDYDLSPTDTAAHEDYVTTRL
Nature of the assay: block of DAMGO-driven TRPC4 calcium entry – cell-based, HEK293 TRPC4/mu-opioid, Fluo-4 calcium, dose response (AID 434942).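 Note: potency of inhibitors blocking the TRPC4 calcium response.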 The assay is classed as functional.

The target in a further assay is Prothrombin (Homo sapiens, UniProt P00734). Nature of the assay: Thrombin 1536 HTS Dose Response Confirmation. [Related pubchem assays: 1046 (Thrombin 1536 HTS; hits were confirmed in this assay)]. The assay is classed as functional.

DNA dC->dU-editing enzyme APOBEC-3A, sequence (P31941 whole entry): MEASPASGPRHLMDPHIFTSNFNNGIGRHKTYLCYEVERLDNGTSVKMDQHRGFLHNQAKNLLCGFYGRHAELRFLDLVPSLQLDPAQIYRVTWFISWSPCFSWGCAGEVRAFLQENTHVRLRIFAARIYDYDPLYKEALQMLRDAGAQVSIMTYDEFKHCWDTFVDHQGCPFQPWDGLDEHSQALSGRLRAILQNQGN
Peroxisome proliferator-activated receptor gamma/Nuclear receptor coactivator 2, sequence (P37231 whole entry): as the sequence (P37231 whole entry) above
Peroxisome proliferator-activated receptor gamma/Nuclear receptor coactivator 2, sequence (Q15596 whole entry, further chain): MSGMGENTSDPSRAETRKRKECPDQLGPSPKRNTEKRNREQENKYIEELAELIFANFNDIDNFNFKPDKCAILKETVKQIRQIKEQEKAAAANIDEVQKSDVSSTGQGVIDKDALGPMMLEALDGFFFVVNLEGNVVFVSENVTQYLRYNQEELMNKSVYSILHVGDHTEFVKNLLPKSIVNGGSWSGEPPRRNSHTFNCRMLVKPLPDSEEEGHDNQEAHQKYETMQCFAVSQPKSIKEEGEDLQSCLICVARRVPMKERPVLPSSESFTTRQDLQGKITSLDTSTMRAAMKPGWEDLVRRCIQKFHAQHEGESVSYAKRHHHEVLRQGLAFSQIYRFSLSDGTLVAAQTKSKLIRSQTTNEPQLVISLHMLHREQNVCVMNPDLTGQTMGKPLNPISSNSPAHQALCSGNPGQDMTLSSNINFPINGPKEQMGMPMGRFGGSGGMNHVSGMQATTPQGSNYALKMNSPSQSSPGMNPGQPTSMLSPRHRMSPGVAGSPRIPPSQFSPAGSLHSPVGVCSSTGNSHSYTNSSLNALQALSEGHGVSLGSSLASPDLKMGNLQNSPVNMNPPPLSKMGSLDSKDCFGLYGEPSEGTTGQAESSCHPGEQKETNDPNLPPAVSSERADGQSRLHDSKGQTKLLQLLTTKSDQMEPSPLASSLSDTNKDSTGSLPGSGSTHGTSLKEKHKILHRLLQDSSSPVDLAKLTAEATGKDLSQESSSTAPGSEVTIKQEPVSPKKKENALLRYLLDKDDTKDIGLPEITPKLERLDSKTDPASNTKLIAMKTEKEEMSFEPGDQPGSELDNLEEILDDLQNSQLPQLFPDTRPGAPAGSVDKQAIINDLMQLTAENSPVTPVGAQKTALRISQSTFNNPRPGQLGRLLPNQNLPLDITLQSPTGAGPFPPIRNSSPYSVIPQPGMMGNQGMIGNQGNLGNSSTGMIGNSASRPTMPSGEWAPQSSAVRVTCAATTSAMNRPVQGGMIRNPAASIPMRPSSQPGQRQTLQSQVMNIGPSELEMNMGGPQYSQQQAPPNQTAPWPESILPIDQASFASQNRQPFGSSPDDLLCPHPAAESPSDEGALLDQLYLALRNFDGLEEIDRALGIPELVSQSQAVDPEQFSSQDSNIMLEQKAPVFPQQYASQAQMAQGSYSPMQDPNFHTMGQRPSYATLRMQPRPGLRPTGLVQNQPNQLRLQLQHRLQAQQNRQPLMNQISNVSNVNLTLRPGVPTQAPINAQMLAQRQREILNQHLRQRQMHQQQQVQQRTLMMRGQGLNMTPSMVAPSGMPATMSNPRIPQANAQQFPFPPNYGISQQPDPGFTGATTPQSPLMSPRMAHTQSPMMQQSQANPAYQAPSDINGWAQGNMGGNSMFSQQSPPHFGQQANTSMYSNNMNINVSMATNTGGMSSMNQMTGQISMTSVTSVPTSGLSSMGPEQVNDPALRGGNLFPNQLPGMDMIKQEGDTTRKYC
Cytochrome P450 2C9, sequence (P11712 whole entry): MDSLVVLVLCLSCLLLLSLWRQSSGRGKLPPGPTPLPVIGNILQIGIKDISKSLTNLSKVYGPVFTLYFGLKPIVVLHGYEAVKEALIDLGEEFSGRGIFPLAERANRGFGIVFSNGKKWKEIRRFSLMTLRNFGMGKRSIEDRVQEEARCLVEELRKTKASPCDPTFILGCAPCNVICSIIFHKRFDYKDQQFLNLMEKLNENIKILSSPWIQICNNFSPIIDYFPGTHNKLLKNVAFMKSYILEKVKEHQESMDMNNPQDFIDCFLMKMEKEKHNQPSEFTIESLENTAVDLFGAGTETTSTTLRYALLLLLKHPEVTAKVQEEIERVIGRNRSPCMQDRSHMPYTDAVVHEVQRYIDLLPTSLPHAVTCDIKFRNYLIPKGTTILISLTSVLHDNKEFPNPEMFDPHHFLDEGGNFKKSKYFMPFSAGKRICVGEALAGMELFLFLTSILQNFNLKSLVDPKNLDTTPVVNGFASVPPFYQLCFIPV

What is called IC50 is the concentration that gives 50% inhibition. Take `O=[N+]([O-])c1ccc2nc(N3CCCC3)sc2c1`: the IC50 on Protein skinhead-1 is 39.1 µM (active); in [1] it was 4.86 µM (active); in assay [2] it was 5.31 µM (active).
In general, AC50 refers to the concentration giving half of the maximal activity seen. Take `CCCCn1nc2cc(C(=O)NC3CCCc4ccccc43)ccc2c1OCC` (stereo unspecified): in assay [3], the IC50 is 12.9 µM (active). In addition, the AC50 is 22.4 µM (inconclusive) at Cytochrome P450 2D6; 39.8 µM (inconclusive) on Cytochrome P450 2C19; 22.4 µM (inconclusive) at Cytochrome P450 2C9; 39.8 µM (inconclusive) on Cytochrome P450 1A2; 35.5 µM (inconclusive) at Cytochrome P450 3A4.
The EC50 is the concentration giving half of the maximal effect. As for `Sc1ncnc2sc(-c3ccccc3)cc12`, the EC50 in [4] is > 79.4 µM (not active); in assay [5] it was 8.82 µM (active); in [6], 34.7 µM (not active). Also, in “cells”, the IC50 is 49.3 µM (active).
In the case of `N#Cc1ccc(-c2ccc3c(c2)OCO3)nc1SCC(=O)OCc1ccccc1`, the EC50 was 20.4 µM (not active) in assay [4], 5.85 µM (active) in assay [5] and 7.23 µM (active) in assay [6].
In the case of `CN(C)c1cc[n+](CC(=O)Nc2ccc(OC(F)F)cc2)cc1`, the values for the half-inhibitory concentration (IC50) in [1] and in [2] were 4.21 µM (active) and 2.44 µM (active), respectively.
As for `CSCCNCc1cn(-c2ccc(F)cc2F)nc1-c1ccccc1C`, the EC50 in [7] is 5.96 µM (active).
As for `N=c1n(CCO)c2ccccc2n1Cc1ccccc1`, on Prothrombin, the IC50 is > 50 µM (not active). Moreover, in assay [7], the EC50 was 5.31 µM (active).
With `Cn1c(=O)cc(SCC(=O)N2CCC3(CC2)OCCO3)c2ccc(Cl)cc21`, the EC50 was > 79.4 µM (not active) in [4], > 79.4 µM (inactive) in assay [5] and > 79.4 µM (not active) in [6].
For `C[N+]1(C)CCN(c2ccccc2)CC1` [DIMETHYLPHENYLPIPERAZINIUM IODIDE], the IC50 in assay [1] is 2.62 µM (active); in assay [2] it was 1.93 µM (active).
